From a melting point compilation (Tetko et al.; mined from patent text by program, amines drawn as free bases though some values may be those of a salt) come the findings set out here.

The structures appear in SMILES notation.

For orientation: melting point means the temperature of the solid-liquid transition. As for `CSc1nc(NN)c(C#N)c(N2CCc3ccccc3CC2)n1`, the melting point was > 200 °C.

With `CCOC(=O)c1ccc(NC(=O)CCCCCc2ccc(Cl)cc2)cc1`, the melting point was in the range of 107 to 108 °C. Turning to `N#CCNC(=O)C(Sc1nc2cc(Cl)ccc2s1)c1ccccc1` (configuration not stated), the melting point was in the range of 167 to 169 °C. `COc1cc(Nc2nccc(-c3cn(S(=O)(=O)c4ccccc4)c4ccccc34)n2)cc(OC)c1OC` showed a melting point of 202 °C.

In turn, `CC(C)(C)OC(=O)c1ccccc1CCc1ccccc1N` came in with a melting point of 58 to 59 °C. Molecule `CCN(CC)CC(O)c1c(OC)ccc2c(C)c(C)oc12` (configuration not stated) yielded a melting point of 55 °C. In turn, `CC1(C)CCc2c(ccc3c2C(=O)C(Br)=C(O)C3=O)O1` came in with a melting point of 213 to 216 °C.

Molecule `CCOC(=O)c1ccccc1N(CC(=O)N(C)c1ccccc1)C(=O)CN1C(=O)c2ccccc2C1=O` displayed a melting point of 202 °C. In the case of `O=C(O)CNC(=O)Cc1ccc(Cl)cc1S`, the melting point was in the range of 148 to 149 °C. The value for `COc1c(C)c(C)c(OC)c(CO)c1C` was 121 to 122 °C; that for `O=C(O)c1ccc(CNc2cc(Br)ccc2OCc2ccccc2)cc1` was 216 to 217 °C; that for `COc1cc2ncc(C#N)c(Nc3ccc(F)c(Cl)c3)c2cc1NC(=O)CC(CN1CCC(O)C1)N1CCC(O)C1` (configuration not stated) was 139 to 143 °C. The molecule `Oc1ccc(-c2cc3cc(O)cc(CC(F)(F)F)c3o2)cc1` yielded a melting point of 210 to 213 °C. On to `O=C(COc1ccccc1)NC1C(=O)N(C(O)(Cc2ccccc2)C(=O)O)C1CI` (configuration not stated), for which the melting point was 159 to 160 °C. In the case of `O=C1NC(=O)C(c2ccccc2)=C1Nc1ccc(OC(F)(F)F)cc1`, the melting point came out at 206 °C. Take `CCc1nc2c(C)cc(C)nc2n1Cc1cccc(C(=Cc2nnn[nH]2)c2ccccc2)c1`: the melting point lay in the range of 187 to 195 °C. Under `CS(=O)(=O)n1cc(C2CCN(S(=O)(=O)N3CCCC[C@@H]3C(=O)NO)CC2)c2cc(C#N)ccc21` stands 143 to 144 °C; under `CN(C)NC(=O)NC(C(=O)O)c1cccs1` (configuration not stated), 208 to 210 °C. For the molecule `COC(=O)Oc1ccc(C=Nc2ccc(C#N)cc2)cc1`, the melting point was 139 °C. For `CCCCOc1cc(CNCCCN2CCCCC2)cc(S(N)(=O)=O)c1Cc1ccccc1`, the melting point was 98 to 101 °C.

Regarding `COc1ccc(-c2cc(-c3ccc(F)cc3)ccc2C(=O)N2CCOCC2)cc1OC`, the melting point was 153 °C. Molecule `O=c1[nH]c(NCCSCc2nccs2)nnc1Cc1cccnc1` had a melting point of 158 to 159 °C. For `N#Cc1cc(F)cc(-c2ccc3c(c2)C2(CCCC2)C(=O)N3)c1`, the melting point is 235 to 237 °C.

Consider `Cc1conc1-c1nnc2c3ccccc3c(OCc3nnccc3C(C)(C)C)nn12`, for which the melting point fell in the range of 230 to 232 °C. Under `COc1ccc(C(=C/C=C/C(=O)Nc2ccc(Cc3cccnc3)cc2)c2ccc(OC)cc2)cc1` stands 185 to 186 °C. On to `CCN(CC)c1ccc2nc3c4ccccc4c(=Nc4cc(C)on4)cc-3oc2c1`, for which the melting point lay in the range of 195 to 196 °C. The value for `CCCCCN1C(=O)C(CCC(=O)O)(NC(=O)c2cc3ccccc3n2CCC#N)c2ccccc21` (configuration not stated) was 125 °C; that for `CCOC(=O)C1=CC(OC)(C(C)(C)C)N(c2ccc(Cl)cc2Cl)N1` (configuration not stated) was 130 to 133 °C.

In turn, `Fc1cccc(CSc2nnc(-c3ccn4ncnc4c3)o2)c1` yielded a melting point of 153 to 154 °C. The value for `N#Cc1ccc2c(c1)C(O)CCCO2` (configuration not stated) was 85 to 86.5 °C; that for `COc1c(O)cc(O)c2c(=O)cc(-c3ccccc3)oc12` was 202 to 203 °C. As for `CCCCn1c(C)c(C)cc(Oc2nc3ccccc3o2)c1=O`, the melting point was in the range of 106 to 108 °C. As for `Cc1cc(C)c(C(=O)c2cccc(-n3ccnc3)c2)c(C)c1`, the melting point was 134 to 136 °C. For the molecule `Cc1noc(-c2cc3c(OC[C@@H](O)CN4CCC(c5ccc6ccccc6c5)CC4)cccc3s2)n1`, the melting point was in the range of 180 to 182 °C. As to `O=C1CCC(N2Cc3c(OCc4ccc5nc(CN6CCOCC6)cn5c4)cccc3C2=O)C(=O)N1` (configuration not stated), the melting point lay within 278 to 280 °C. The molecule `O=P1(c2ccc(-c3ccccc3)cc2)c2ccccc2CN1c1ccccc1` (configuration not stated) returned a melting point of 259 to 261 °C. `O=C1NCCN1c1cn(-c2cccnc2)nc1Cl`: the melting point lay within 167 to 170 °C.

For the molecule `COc1cc(-c2cccc(Cl)c2)c2cc(C(O)(c3ccc(Cl)cc3)c3nnc(S)n3C)ccc2n1` (configuration not stated), the melting point is > 260 °C. `COC(=O)C1=C(O)c2cc(Cl)sc2S(=O)(=O)N1` returned a melting point of 173 to 174 °C. With `C/C(=N\OC(=O)c1ccc(CN2CCOCC2)cc1)[C@H]1CC[C@H]2[C@@H]3CCC4=CC(=O)CC[C@]4(C)[C@H]3CC[C@]12C`, the melting point is 166 to 168 °C. The molecule `O=C(O)C(CC1CC2CCN1CC2)(c1ccccc1)c1ccccc1` (configuration not stated) yielded a melting point of 180 to 185 °C. For the molecule `CCOC(=O)C(=Cc1ccccc1)S(=O)(=O)NC(C)(C)C`, the melting point was 111 to 113 °C. Molecule `CC(COc1ccc(C(N)=O)c(O)c1)NCC(O)COc1cccc2c1CCC(=O)N2` (configuration not stated) returned a melting point of 239 to 245 °C.

For the molecule `COc1ccccc1C=C(C=O)C(C=O)=Cc1ccccc1OC`, the melting point lay within 163 to 164 °C. Molecule `O=C1c2cccc3c4c(cc(c23)C(=O)N1O)OCCO4` showed a melting point of 344 to 347 °C. Consider `O=C1[C@H]2CCC[C@H]2N(C(=O)CBr)c2ccccc2N1Cc1ccc([N+](=O)[O-])cc1` (relative stereo), for which the melting point was 160 to 162 °C. Consider `COC(=O)NNCc1ccc(Cl)cc1Cl`, for which the melting point was 82 to 83 °C.

`O=c1[nH]c(-c2ccc(CCCl)cc2)cs1`: the melting point lay within 226 to 229 °C. Under `CCN(CC)C(=O)c1ccc(C)c(-c2nc(NC3CCN(C)CC3)nc3c2CNC(=O)N3c2c(F)cccc2F)c1` stands 165 to 169 °C; under `CCCN1CCN=C1c1ccccc1C(=O)c1ccc(Cl)cc1`, 131 to 133 °C. Regarding `CC12CCC(Oc3c(F)c(F)c(C(F)(F)F)c(F)c3F)=CC1=CCC1C2CCC2(C)C(OS(=O)(=O)C(F)(F)F)=CCC12` (configuration not stated), the melting point lay in the range of 106 to 107 °C. Regarding `CCOC(=O)c1cccc(NC(=O)c2sc(NC(=N)N)nc2C)c1`, the melting point was 149 to 152 °C. With `CCOC(=O)C1=C(C)Nc2n[nH]cc2C1c1ccccc1OC` (configuration not stated), the melting point was in the range of 196 to 200 °C. On to `CNC(=O)C1(N2C(=O)c3cccc(NC(C)=O)c3C2=O)CCCCC1`, for which the melting point lay in the range of 205 to 208 °C. `N#CCc1c(-c2ccccc2)sc2ccc(Cl)cc12`: the melting point was in the range of 158 to 160 °C. Turning to `CC(C(=O)NC1=NCCS1)c1ccc(C(=O)c2cccs2)cc1` (configuration not stated), the melting point was 186 °C. `COCCc1nc2c(N)nc(C)c(C)c2n1NC1CCOCC1` showed a melting point of 110 to 120 °C. `CC(C)OP(=O)(/C=C/CCn1cnc2c(Cl)ncnc21)OC(C)C` had a melting point of 105 °C. Consider `Cc1ccc(S(=O)(=O)Nc2cc3c(c(C(=O)O)c2)NC(c2ccccc2)CC3)cc1` (configuration not stated), for which the melting point was 219 to 220 °C. Turning to `CCNC(=O)n1nc(Oc2ncc(C(F)(F)F)cc2Cl)cc1C(F)(F)F`, the melting point was in the range of 52 to 54 °C. As to `CN(C)c1ccc(-c2[nH]c(-c3ccc([N+](=O)[O-])cc3)nc2C(=O)Nc2nccs2)cc1`, the melting point is 250 to 251 °C. As for `O=C(Cc1ccccc1)Nc1ccc2c(c1)C(=O)c1cc(NC(=O)Cc3ccccc3)ccc1C2=O`, the melting point came out at 224 °C.

For the molecule `CC#CCOc1ccc(SC(C(=O)NO)c2ccc(Br)cc2)cc1` (configuration not stated), the melting point stood at 153 °C.

On to `CC(=O)NCc1ccc(CN2CCN(c3cccc(C)c3)CC2)cc1`, for which the melting point was 80 to 81 °C. `CC(C)(C)c1cnnc(NN)n1` gave a melting point of 117 to 118 °C. Under `CCCCCCCCCCCC1=NCCN1CCO` stands 40 to 42 °C; under `Clc1ccc(-c2cc(C3=CCN(Cc4c[nH]c5ncccc45)CC3)on2)cc1`, 245 to 247 °C. Regarding `O=C(CCl)Nc1ccc2c(c1NC(=O)c1ccc(F)cc1)C(=O)c1ccccc1C2=O`, the melting point was 184 to 185 °C.

Molecule `CCOC(=O)c1sccc1S(=O)(=O)NC(=O)Nc1nc(C)nc(OC)n1` came in with a melting point of 166 °C. As to `N#CCCNC(=O)c1n[nH]cc1NC(=O)c1cc(Cl)ccn1`, the melting point fell in the range of 261 to 263 °C. Under `CC(=O)OC1CSC(Oc2cncc(Br)c2)C(OC(C)=O)C1OC(C)=O` (configuration not stated) stands 174 °C; under `FC(F)(F)c1cc2[nH]c(N3CCN(c4ncccc4C(F)(F)F)CC3)nc2cc1Cl`, 206 to 208 °C; under `CC(C#N)(COc1ccc(Cl)cc1Cc1ccccc1)NC(=O)c1ccc(OC(F)(F)F)cc1` (configuration not stated), 103 to 104 °C. Under `OCC1=Cc2cccc(OCc3ccccc3)c2CC1` stands 59 to 61 °C; under `N#Cc1c(Cl)cncc1Cl`, 117 to 118 °C.

Turning to `CC(C)CCCC(C)C1CCC2C3=CC=C4CC(O)CC(O)C4(C)C3CCC21C` (configuration not stated), the melting point is 155 to 158 °C. On to `COC(=O)CCCc1cc2nc(Cl)ccc2n1S(=O)(=O)c1ccc(-c2nccs2)cc1`, for which the melting point turned out to be 101 °C. Under `NNc1nncc(-c2cccc(Cl)c2)n1` stands 163 to 166 °C. Molecule `O=c1cc(CCl)nc2sc(-c3ccccc3)nn12` displayed a melting point of 201 to 202 °C. For the molecule `NN=C1c2ccccc2-c2ccc(Cl)cc21`, the melting point lay within 139 to 143 °C. `CC(C)(C)OC(=O)N1CCN(C(=O)OCc2ccccc2)CC1` came in with a melting point of 90.5 to 91.5 °C. Molecule `Nc1nc(S(=O)(=O)Cl)nn1C(=O)Oc1ccccc1` came in with a melting point of 164 °C.

`CN(C)CCN(C(=O)c1cccc([N+](=O)[O-])c1Br)c1ccnc2cc3c(cc12)OCO3` registered a melting point of 96 to 97 °C.

With `CCOC(=O)C=Cc1ccc(OCc2nc(-c3ccccc3)oc2C)cc1`, the melting point was in the range of 145 to 146 °C.

In turn, `COC(=O)C1(Cl)CC(=O)N(c2ccc(Cl)cc2)C1=C(Cl)Cl` (configuration not stated) showed a melting point of 159 °C.

On to `CC1(C)CC(=O)c2c(nc(Cc3ccc(O)c(F)c3)c3[nH]c4ccccc4c23)C1`, for which the melting point was 216 to 218 °C. Consider `Cc1ccc(S(=O)(=O)N2[C@@H](CCl)CC[C@H]2c2ccc(F)cc2)cc1` (racemic), for which the melting point came to 130 °C.
